This note sets out measurements from ChEMBL document CHEMBL1144314, “Synthesis and antibacterial activity of 1-[1,2,4-triazol-3-yl] and 1-[1,3,4-thiadiazol-2-yl]-3-methylthio-6,7-dihydrobenzo[c]thiophen-4(5H)ones” (2005).

Holding throughout (assay type): functional
Assay [1] has as its system Candida albicans. As to the kind of experiment: Antimicrobial activity against Candida albicans was determined.
Assay [2] relates to Aspergillus niger. Kind of assay: Antimicrobial activity against Aspergillus niger was determined.
For assay [3], the system named is Bacillus subtilis. Kind of assay: Antimicrobial activity of the compound against Bacillus subtilis was determined.
Assay [4] has as its system Staphylococcus epidermidis. As to the kind of experiment: Antimicrobial activity against Staphylococcus epidermidis was determined.
The subject of assay [5] is Staphylococcus aureus. Kind of assay: Antimicrobial activity of the compound against Staphylococcus aureus was determined.
The test system of assay [6] is Bacillus cereus. As to the kind of experiment: Antimicrobial activity against Bacillus cereus was determined.
The subject of assay [7] is Pseudomonas aeruginosa. Kind of assay: Antimicrobial activity against Pseudomonas aeruginosa was determined.

For the compound `C[C@@H]1[C@H](O)[C@@H](C)/C=C/C=C/C=C/C=C/C=C/C=C/C=C/[C@H](O[C@@H]2O[C@H](C)[C@@H](O)[C@H](N)[C@@H]2O)C[C@@H]2O[C@](O)(C[C@@H](O)C[C@@H](O)[C@H](O)CC[C@@H](O)C[C@@H](O)CC(=O)O[C@H]1C)C[C@H](O)[C@H]2C(=O)O` [AMPHOTERICIN B], the Zone of inhibition in assay [1] and in assay [2] was 22 mm throughout.

As for `CCNc1nnc(-c2sc(SC)c3c2CCCC3=O)s1`, the Zone of inhibition in assay [1] worked out at 13 mm; in assay [3], 20 mm; in assay [2] it was 8 mm.

Consider `CNc1nnc(-c2sc(SC)c3c2CCCC3=O)s1`, for which the Zone of inhibition in assay [1] is reported as 12 mm; in assay [3], 28 mm; in assay [2] it was 11 mm.

In turn, `CSc1sc(-c2nnc(NC3CCCCC3)s2)c2c1C(=O)CCC2` registered a Zone of inhibition in assay [2] of 12 mm.

Consider `CCCCn1c(S)nnc1-c1sc(SC)c2c1CCCC2=O`, for which the Zone of inhibition is 26 mm in assay [4], 17 mm in assay [5] and 14 mm in assay [3].

`CSc1sc(-c2nnc(SC)n2-c2ccc([N+](=O)[O-])cc2)c2c1C(=O)CCC2`: the Zone of inhibition is given as 24 mm in assay [4]; 18 mm in assay [5]; 12 mm in assay [6]; 14 mm in assay [7]; 21 mm in assay [3].

Regarding `O=C1CN(/N=C/c2ccc([N+](=O)[O-])o2)C(=O)N1` [NITROFURANTOIN], the Zone of inhibition in assay [5] was 21 mm; in assay [6] it was 20 mm; in assay [7], 21 mm; in assay [3] it was 18 mm.

`CCCCNc1nnc(-c2sc(SC)c3c2CCCC3=O)s1`: the Zone of inhibition is 11 mm in assay [1], 22 mm in assay [3] and 9 mm in assay [2].

With `CSc1sc(-c2nnc(S)n2-c2ccc([N+](=O)[O-])cc2)c2c1C(=O)CCC2`, the Zone of inhibition in assay [4] was determined as 25 mm; in assay [5] it was 18 mm; in assay [7], 14 mm; in assay [3] it was 23 mm.

Consider `CCCCn1c(SC)nnc1-c1sc(SC)c2c1CCCC2=O`, for which the Zone of inhibition in assay [4] amounted to 26 mm; in assay [5], 17 mm; in assay [6], 16 mm; in assay [3] it was 16 mm.

With `CSc1sc(-c2nnc(Nc3ccc([N+](=O)[O-])cc3)s2)c2c1C(=O)CCC2`, the Zone of inhibition amounted to 14 mm in assay [1], 33 mm in assay [3] and 10 mm in assay [2].

Turning to `COc1ccc(-n2c(S)nnc2-c2sc(SC)c3c2CCCC3=O)cc1`, the Zone of inhibition in assay [3] was 11 mm.

Regarding GENTAMICIN, the values for the inhibition zone (IZ) in assay [4], in assay [6] and in assay [3] were 20 mm, 28 mm and 30 mm, respectively.
